Measurements taken from PubChem BioAssay AID488810 (Sanford-Burnham Center for Chemical Genomics, 2010).
Several values for one entry are separate records, joined by “and”; a condition that tells them apart may be missing. Equal values may be shown once. Activity calls are given as the source filed them.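 Rule for the calls: active = compounds with IC50 below 20 µM; inactive = the rest.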

What follows are compounds tested against Type-1 angiotensin II receptor (Homo sapiens) (UniProt P30556) (assay: AGTR1 antagonism selectivity check – cell-based, CHO-K1 PathHunter, luminescence, selectivity assay for APJ antagonist project, SAR follow-up (AID 488810;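 note: agonist challenge with angiotensin II at 50 nM final near its EC80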)). Conditions: CHO-K1 AGTR1 PathHunter beta-arrestin, antagonist mode.
Sequence of Type-1 angiotensin II receptor (Homo sapiens) (P30556 whole entry, looked up): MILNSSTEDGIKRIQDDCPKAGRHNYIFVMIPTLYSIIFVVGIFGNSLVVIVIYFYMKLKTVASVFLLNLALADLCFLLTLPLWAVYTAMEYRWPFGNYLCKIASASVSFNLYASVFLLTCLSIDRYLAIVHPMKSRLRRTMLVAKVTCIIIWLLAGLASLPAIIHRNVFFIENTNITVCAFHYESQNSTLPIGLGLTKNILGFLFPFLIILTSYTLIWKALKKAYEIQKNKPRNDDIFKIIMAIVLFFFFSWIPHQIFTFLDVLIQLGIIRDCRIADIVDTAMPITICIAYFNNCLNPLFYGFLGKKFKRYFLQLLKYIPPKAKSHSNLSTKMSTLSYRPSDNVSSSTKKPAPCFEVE

SMILES | IC50
O=C(Oc1coc(CSc2ncccn2)cc1=O)c1cccc([N+](=O)[O-])c1 | > 79 µM (inactive)
Cn1c(=O)c(C(=S)NC(=O)C2CC2)c(N)n(Cc2ccccc2)c1=O | inactive
Cc1ccccc1NCC(O)c1ccc(Cl)cc1 (configuration not stated) | > 79 µM (inactive)
O=c1cc(CCl)occ1O | > 79 µM (inactive)
N#Cc1ccc(C(=O)Oc2coc(CSc3ncccn3)cc2=O)cc1 | > 79 µM (inactive)
CC1(C)CC2(CC(c3ccc(Cl)cc3)c3ccc(O)cc3O2)NC(=S)N1 (configuration not stated) | inactive
O=C1Nc2ccccc2C1=Nc1ccc(Br)cc1 | 6.68 µM
Cc1ccnc(SCc2cc(=O)c(OC(=O)c3cc(Cl)ccc3[N+](=O)[O-])co2)n1 | inactive
O=C(Oc1coc(CSc2ncccn2)cc1=O)c1ccc(S(=O)(=O)N2CCCCC2)cc1 | > 79 µM (inactive)
CNC(=O)c1nnsc1S(=O)(=O)c1ccc(Cl)cc1 | 9.98 µM
O=C(CNC(=O)c1ccco1)NCC(=O)OCC(=O)c1ccc(Cl)c([N+](=O)[O-])c1 | 4.78 µM
O=C(Oc1coc(CSc2ncccn2)cc1=O)c1ccc(Br)cc1 | > 79 µM (inactive)
CC(C)N1CCc2c(sc(NC(=O)c3cc(-c4cccs4)nc4ccccc34)c2C(N)=O)C1 | inactive
COc1ccc(N=C2C(=O)Nc3ccc(C)c(Br)c32)cc1 | > 79 µM (inactive)
CC(=O)Nc1ccc(NC(=O)CCC(=O)OCC(=O)c2ccc(C)c([N+](=O)[O-])c2)cc1 | inactive
CC(C)Cc1nc2oc3c(Cl)ncnc3c2c2c1CCC2 | 15 µM
Cc1ccc(N=C2C(=O)Nc3c(C)cccc32)cc1 | inactive
Cc1ccccc1NCC(=O)c1ccc(Cl)cc1 | 1.72 µM
Oc1cccc2ccc(/C=C/c3ccccc3Cl)nc12 | 17 µM
Cc1ccnc(SCc2cc(=O)c(OC(=O)c3ccccc3Cl)co2)n1 | > 79 µM (inactive)
COc1ccc(C(=O)Oc2coc(CSc3ncccn3)cc2=O)cc1 | > 79 µM (inactive)
O=C(O)CN1C(=O)C(=O)c2ccccc21 | > 79 µM (inactive)
Cc1ccnc(SCc2cc(=O)c(OC(=O)c3ccco3)co2)n1 | > 79 µM (inactive)
Cc1ccc(C(=O)Oc2coc(CSc3ncccn3)cc2=O)cc1 | > 79 µM (inactive)
Cc1ccnc(SCc2cc(=O)c(OC(=O)c3ccc([N+](=O)[O-])cc3)co2)n1 | > 79 µM (inactive)
Cc1ccnc(SCc2cc(=O)c(OC(=O)c3ccc(C#N)cc3)co2)n1 | > 79 µM (inactive)

SMILES | IC50
Cc1ccnc(S(=O)(=O)Cc2cc(=O)c(OC(=O)c3ccc(Cl)c([N+](=O)[O-])c3)co2)n1 | > 79 µM (inactive)
CCCCOc1ccc(C(=O)Oc2coc(CSc3ncccn3)cc2=O)cc1 | > 79 µM (inactive)
Cc1c(O)ccc2c1OC1(CC2c2ccccc2Cl)CC(C)(C)NC(=S)N1 (configuration not stated) | > 79 µM (inactive)
COc1ccccc1NCC(=O)c1ccc(Cl)cc1 | 1.93 µM and 2.19 µM
Cc1cc(C)nc(SCc2ccc(O)c(Cl)c2)n1 | > 79 µM (inactive)
Cc1ccnc(SCc2cc(=O)c(OCc3ccccc3)co2)n1 | > 79 µM (inactive)
COc1ccc(C(=O)CNc2cccc(F)c2)cc1 | 18.8 µM
CC1(C)CC2(CC(c3ccc(F)cc3)c3ccc(O)cc3O2)NC(=S)N1 (configuration not stated) | > 79 µM (inactive)
CC(=O)Oc1cc2c(cc1Cl)C(c1ccccc1Cl)CC1(CC(C)(C)NC(=S)N1)O2 (configuration not stated) | inactive
O=C(CNc1ccccc1C(=O)O)c1ccccc1 | 2.1 µM
Cc1ccnc(SCc2cc(=O)c(OC(=O)c3cccc([N+](=O)[O-])c3)co2)n1 | > 79 µM (inactive)
CC1(C)CC2(CC(c3ccccc3Cl)c3cc(Cl)c(OC(=O)C4CC4)cc3O2)NC(=S)N1 (configuration not stated) | > 79 µM (inactive)
COc1ccc(S(=O)(=O)NNc2nc(C)cc(C)n2)cc1Br | inactive
Cc1c(O)ccc2c1OC1(CC2c2ccccc2Cl)CC(C)(C)NC(=O)N1 (configuration not stated) | > 79 µM (inactive)
O=C(COC(=O)c1ccncc1)c1ccc(Cl)c(Cl)c1 | 19.8 µM
CCC1CCCCN1CC(=O)c1ccc(OC(F)F)cc1 (configuration not stated) | inactive
CC1(C)CC2(CC(c3ccccc3Cl)c3ccc(O)cc3O2)NC(=S)N1 (configuration not stated) | inactive
Cc1cc(C)nc(NNS(=O)(=O)c2ccc(F)c(Cl)c2)n1 | 3.78 µM
O=C(Oc1coc(CSc2ncccn2)cc1=O)c1ccc(S(=O)(=O)N2CCOCC2)cc1 | > 79 µM (inactive)
O=C(COC(=O)c1cccnc1)c1ccc(Cl)cc1 | > 79 µM (inactive)
O=C(CNc1ccc(Br)cc1)c1ccccc1 | 2.66 µM
O=c1c2cc(Br)ccc2[nH]c(=S)n1Cc1ccccn1 | 15.6 µM
Cc1cccc(C(=O)Oc2coc(CSc3nccc(C)n3)cc2=O)c1 | > 79 µM (inactive)
O=C(Oc1coc(CSc2ncccn2)cc1=O)c1ccc(-c2ccccc2)cc1 | > 79 µM (inactive)
Cc1ccnc(SCc2cc(=O)c(OC(=O)c3ccc(C)c([N+](=O)[O-])c3)co2)n1 | > 79 µM (inactive)
O=C(Oc1coc(CSc2ncccn2)cc1=O)c1ccccc1 | > 79 µM (inactive)

SMILES | IC50
Oc1cccc(CSc2ncccn2)c1 | > 79 µM (inactive)
Cc1cccc2c1NC(=O)C2=Nc1ccc(Cl)cc1 | 14.3 µM
Cc1ccc2nc(C)cc(C(=O)OCC(=O)c3ccc(Cl)c([N+](=O)[O-])c3)c2c1 | 7.74 µM
Cc1cccc(C2CC3(CC(C)(C)NC(=O)N3)Oc3cc(O)c(Cl)cc32)c1 (configuration not stated) | > 79 µM (inactive)
COc1ccccc1NCC(O)c1ccc(Cl)cc1 (configuration not stated) | > 79 µM (inactive)
O=C(COC(=O)c1cccnc1)c1ccc(Cl)c(Cl)c1 | inactive
Cc1ccnc(SCc2cc(=O)c(OC(=O)c3ccccc3)co2)n1 | > 79 µM (inactive)
Cc1ccc(C)c(NCC(O)c2ccc(Cl)cc2)c1 (configuration not stated) | > 79 µM (inactive)
COc1ccc(NC2C(=O)Nc3ccccc32)cc1 (configuration not stated) | > 79 µM (inactive)
C=CCOc1cccc(CSc2nccc(C)n2)c1 | > 79 µM (inactive)
O=C(Nc1nc2c(F)cc(F)cc2s1)c1ccccn1 | 4.52 µM
Cc1ccnc(SCc2cc(=O)c(O)co2)n1 | > 79 µM (inactive)
CC1(C)CC2(CC(c3ccccc3Cl)c3ccc(O)cc3O2)NC(=O)N1 (configuration not stated) | > 79 µM (inactive)
Cc1cc(C)nc(NNS(=O)(=O)c2ccc(Cl)cc2)n1 | 12.4 µM
O=c1cc(CSc2ccccc2)occ1O | > 79 µM (inactive)
Cc1ccnc(SCc2cc(=O)c(OC(=O)c3ccc(Cl)cc3)co2)n1 | > 79 µM (inactive)
O=C(Oc1coc(CSc2ncccn2)cc1=O)c1ccc(Cl)cc1 | > 79 µM (inactive)
CN(C)S(=O)(=O)c1ccc(C(=O)Oc2coc(CSc3ncccn3)cc2=O)cc1 | > 79 µM (inactive)
Cc1ccccc1C1CC2(CC(C)(C)NC(=S)N2)Oc2cc(O)c(Cl)cc21 (configuration not stated) | > 79 µM (inactive)
COc1ccc(C(=O)Oc2coc(CSc3nccc(C)n3)cc2=O)cc1 | > 79 µM (inactive)
O=C(CNS(=O)(=O)c1ccccc1)OCC(=O)c1cccc([N+](=O)[O-])c1 | inactive
C=CCOc1cccc(CSc2nc(C)cc(C)n2)c1 | > 79 µM (inactive)
O=C(Nc1nc2ccc(F)cc2s1)c1ccccn1 | 5.27 µM
COc1ccc(C2CC3(CC(C)(C)NC(=S)N3)Oc3cc(OC(C)=O)cc(C)c32)cc1 (configuration not stated) | > 79 µM (inactive)
O=C(Oc1coc(CSc2ncccn2)cc1=O)c1ccc([N+](=O)[O-])cc1 | > 79 µM (inactive)
